Assay results as given in US20260334439A1, “BCAT2 INHIBITORS” (Agios Pharmaceuticals, Inc., priority 2023, published 2026).

Molecular target: T1, BCAT2 (Homo sapiens, UniProt O15382)
T1 sequence (O15382 28-392): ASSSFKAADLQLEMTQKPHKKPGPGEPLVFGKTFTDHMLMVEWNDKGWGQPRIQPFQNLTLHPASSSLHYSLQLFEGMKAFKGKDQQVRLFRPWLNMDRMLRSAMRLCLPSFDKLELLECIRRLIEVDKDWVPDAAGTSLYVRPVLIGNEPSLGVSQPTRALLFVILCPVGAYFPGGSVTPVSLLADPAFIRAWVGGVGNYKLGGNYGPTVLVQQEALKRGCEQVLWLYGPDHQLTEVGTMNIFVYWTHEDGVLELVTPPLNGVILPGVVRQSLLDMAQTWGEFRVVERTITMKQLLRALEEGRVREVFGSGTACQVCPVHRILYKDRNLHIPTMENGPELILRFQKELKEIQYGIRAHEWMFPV
Experiment: BCAT2 in vitro enzyme inhibition assay (hBCAT2, glutamate dehydrogenase/diaphorase/resazurin coupled fluorescence read)
Type: biochemical
Details: hBCAT2, 1 h preincubation at 25° C., one hour reaction; average where tested multiple times
Procedure: • 2×Buffer: 200 mM Tris pH 8.0, 300 mM NaCl, 0.1% BSA • 1.67×hBCAT2 Enzyme Mix: 0.33 μg/mL hBCAT2, 1× Buffer • 2.5×Substrate Mix: 460 µM L-leucine, 420 µM α-KetoGlutarate, 10 U/mL glutamate dehydrogenase, 10 mM NAD, […] diaphorase, […] Resazurin
BCAT2 enzyme stock solution was diluted to prepare a 1.67×hBCAT2 Enzyme Mix. 1 μL of test compound was first added to the reaction wells followed by 30 μL of 1.67×hBCAT2 Enzyme Mix and incubated at room temperature (25° C.) for one hour. Meanwhile the Substrate Mix was prepared. The reaction was initiated by the addition of 20 μL of the 2.5×Substrate Mix, bringing the final reaction mix of all components to 1×. Reactions were quenched after one hour by the addition of 25 μL of 6% SDS and reaction progress was measured via fluorescence read (Ex 540/Em 590).
Test compounds were prepared at 50×final concentration in DMSO, 1 to 3 dilutions were made for 10 points. The compounds were added to the assay as a 1 to 50 dilution (1 μL in 50 μL) to yield a top assay final concentration of 100 μM, decreasing 3-fold for 10 points. Each compound dilution series test also included an assay max (1 μL DMSO Added in lieu of compound, Full Reaction Components Included) and Min (1 μL DMSO Added in lieu of compound, 30 μl of 1.67×hBCAT2 Enzyme Mix replated by 30 μL of 1×Buffer). All tests were performed in technical duplicate.
Where a compound was tested multiple times, the average value of the tests is reported.

Structure (SMILES)	IC50 [nM]
CS(=O)(=O)c1ccc(Cl)cc1C(=O)N[C@H]1CCC[C@@H](n2c(-c3ccccc3F)nc3cnc(-c4nc[nH]n4)cc32)C1 [Example 12, 5-chloro-N-((1S,3R)-3-(2-(2-fluorophenyl)-6-(1H-1,2,4-triazol-3-yl)-1H-imidazo[4,5-c]pyridin-1-yl)cyclohexyl)-2-(methylsulfonyl)benzamide]	> 1000
CC(C)OCc1nc2cnc(-c3nc[nH]n3)cc2n1[C@@H]1CCC[C@H](NC(=O)c2cc(Cl)ccn2)C1 [Example 20, 4-chloro-N-((1S,3R)-3-(2-(isopropoxymethyl)-6-(1H-1,2,4-triazol-3-yl)-1H-imidazo[4,5-c]pyridin-1-yl)cyclohexyl)picolinamide]	> 1000
O=C(N[C@H]1CCC[C@@H](n2c(-c3ccccc3F)nc3cnc(N4CCCC4)cc32)C1)c1cc(Cl)ccn1 [Example 28, 4-chloro-N-((1S,3R)-3-(2-(2-fluorophenyl)-6-(pyrrolidin-1-yl)-1H-imidazo[4,5-c]pyridin-1-yl)cyclohexyl)picolinamide]	100 to 500
CCNCc1nc2cnc(-c3nc[nH]n3)cc2n1[C@@H]1CCC[C@H](NC(=O)c2cc(Cl)ccn2)C1 [Example 38, 4-chloro-N-((1S,3R)-3-(2-((ethylamino)methyl)-6-(1H-1,2,4-triazol-3-yl)-1H-imidazo[4,5-c]pyridin-1-yl)cyclohexyl)picolinamide]	> 1000
Nc1ccc(Cl)cc1C(=O)N[C@H]1CCC[C@@H](n2c(-c3ccccc3F)nc3cnc(-c4nc[nH]n4)cc32)C1 [Example 41, 2-amino-5-chloro-N-((1S,3R)-3-(2-(2-fluorophenyl)-6-(1H-1,2,4-triazol-3-yl)-1H-imidazo[4,5-c]pyridin-1-yl)cyclohexyl)benzamide]	100 to 500
CC(C)(C#N)Cc1nc2cnc(-c3nc[nH]n3)cc2n1[C@@H]1CCC[C@H](NC(=O)c2cc(Cl)ccn2)C1 [Example 43, 4-chloro-N-((1S,3R)-3-(2-(2-cyano-2-methylpropyl)-6-(1H-1,2,4-triazol-3-yl)-1H-imidazo[4,5-c]pyridin-1-yl)cyclohexyl)picolinamide]	500 to 1000
CC(C)(Cc1nc2cnc(-c3nc[nH]n3)cc2n1[C@@H]1CCC[C@H](NC(=O)c2cc(Cl)ccn2)C1)C(N)=O [Example 44, N-((1S,3R)-3-(2-(3-amino-2,2-dimethyl-3-oxopropyl)-6-(1H-1,2,4-triazol-3-yl)-1H-imidazo[4,5-c]pyridin-1-yl)cyclohexyl)-4-chloropicolinamide]	> 1000
CC(C)COc1ccc(Cl)cc1C(=O)N[C@H]1CCC[C@@H](n2c(-c3ncccc3F)nc3cnc(-c4nc[nH]n4)cc32)C1 [Example 48, 5-chloro-N-((1S,3R)-3-(2-(3-fluoropyridin-2-yl)-6-(1H-1,2,4-triazol-3-yl)-1H-imidazo[4,5-c]pyridin-1-yl)cyclohexyl)-2-isobutoxybenzamide]	< 100
O=C(N[C@H]1CCC[C@@H](n2c(-c3ccccc3OC3CCOC3)nc3cnc(-c4nc[nH]n4)cc32)C1)c1cc(Cl)ccn1 (stereo partly drawn) [Example 87, 4-chloro-N-((1S,3R)-3-(2-(2-((tetrahydrofuran-3-yl)oxy)phenyl)-6-(1H-1,2,4-triazol-3-yl)-1H-imidazo[4,5-c]pyridin-1-yl)cyclohexyl)picolinamide]	> 1000
CC(Oc1ccccc1-c1nc2cnc(-c3nc[nH]n3)cc2n1[C@@H]1CCC[C@H](NC(=O)c2cc(Cl)ccn2)C1)C(F)(F)F (stereo partly drawn) [Example 91, N-((1S,3R)-3-(6-(1H-1,2,4-triazol-3-yl)-2-(2-((1,1,1-trifluoropropan-2-yl)oxy)phenyl)-1H-imidazo[4,5-c]pyridin-1-yl)cyclohexyl)-4-chloropicolinamide]	> 1000
CC(Oc1ccccc1-c1nc2cnc(-c3nc[nH]n3)cc2n1[C@@H]1CCC[C@H](NC(=O)c2cc(Cl)ccn2)C1)C(F)(F)F (stereo partly drawn) [Example 92, N-((1S,3R)-3-(6-(1H-1,2,4-triazol-3-yl)-2-(2-((1,1,1-trifluoropropan-2-yl)oxy)phenyl)-1H-imidazo[4,5-c]pyridin-1-yl)cyclohexyl)-4-chloropicolinamide]	> 1000

Now from value to compound:

IC50 [nM]	Structure (SMILES)
< 100	COc1ccc(F)cc1C(=O)N[C@H]1CCC[C@@H](n2c(-c3ccccc3F)nc3cnc(-c4nc[nH]n4)cc32)C1 [Example 8, 5-fluoro-N-((1S,3R)-3-(2-(2-fluorophenyl)-6-(1H-1,2,4-triazol-3-yl)-1H-imidazo[4,5-c]pyridin-1-yl)cyclohexyl)-2-methoxybenzamide]
< 100	COc1ccc(C(F)(F)F)cc1C(=O)N[C@H]1CCC[C@@H](n2c(-c3ccccc3F)nc3cnc(-c4nc[nH]n4)cc32)C1 [Example 9, N-((1S,3R)-3-(2-(2-fluorophenyl)-6-(1H-1,2,4-triazol-3-yl)-1H-imidazo[4,5-c]pyridin-1-yl)cyclohexyl)-2-methoxy-5-(trifluoromethyl)benzamide]
< 100	O=C(N[C@H]1CCC[C@@H](n2c(-c3ccccc3F)nc3cnc(-c4nc[nH]n4)cc32)C1)c1cc(Cl)cnn1 [Example 17, 5-chloro-N-((1S,3R)-3-(2-(2-fluorophenyl)-6-(1H-1,2,4-triazol-3-yl)-1H-imidazo[4,5-c]pyridin-1-yl)cyclohexyl)pyridazine-3-carboxamide]
< 100	NCCOc1ccc(Cl)cc1C(=O)N[C@H]1CCC[C@@H](n2c(-c3ccccc3F)nc3cnc(-c4nc[nH]n4)cc32)C1 [Example 42, 2-(2-aminoethoxy)-5-chloro-N-((1S,3R)-3-(2-(2-fluorophenyl)-6-(1H-1,2,4-triazol-3-yl)-1H-imidazo[4,5-c]pyridin-1-yl)cyclohexyl)benzamide]
< 100	N#Cc1ccccc1-c1nc2cnc(-c3nc[nH]n3)cc2n1[C@@H]1CCC[C@H](NC(=O)c2cc(F)ccn2)C1 [Example 46, N-((1S,3R)-3-(2-(2-cyanophenyl)-6-(1H-1,2,4-triazol-3-yl)-1H-imidazo[4,5-c]pyridin-1-yl)cyclohexyl)-4-fluoropicolinamide]
< 100	COc1ccnc(C(=O)N[C@H]2CCC[C@@H](n3c(-c4ccccc4F)nc4cnc(-c5nc[nH]n5)cc43)C2)c1 [Example 60, N-((1S,3R)-3-(2-(2-fluorophenyl)-6-(1H-1,2,4-triazol-3-yl)-1H-imidazo[4,5-c]pyridin-1-yl)cyclohexyl)-4-methoxypicolinamide]
< 100	O=C(N[C@H]1CCC[C@@H](n2c(-c3ccccc3F)nc3cnc(-c4nc[nH]n4)cc32)C1)c1cc(Cl)cc[n+]1[O-] [Example 67, 4-chloro-2-(((1S,3R)-3-(2-(2-fluorophenyl)-6-(1H-1,2,4-triazol-3-yl)-1H-imidazo[4,5-c]pyridin-1-yl)cyclohexyl)carbamoyl)pyridine 1-oxide]
< 100	O=C(N[C@H]1CCC[C@@H](n2c(-c3ccccc3F)nc3cnc(-c4nc[nH]n4)cc32)C1)c1ccc(F)cc1F [Example 75, 2,4-difluoro-N-((1S,3R)-3-(2-(2-fluorophenyl)-6-(1H-1,2,4-triazol-3-yl)-1H-imidazo[4,5-c]pyridin-1-yl)cyclohexyl)benzamide]
< 100	CC(C)Cc1nc2cnc(-c3nc[nH]n3)cc2n1[C@@H]1CCC[C@H](NC(=O)c2cc(Cl)ccc2OC2CC2)C1 [Example 79, 5-chloro-2-cyclopropoxy-N-((1S,3R)-3-(2-isobutyl-6-(1H-1,2,4-triazol-3-yl)-1H-imidazo[4,5-c]pyridin-1-yl)cyclohexyl)benzamide]
